Changes are numbered by the printed parent chain.
Key:
[1] = target: T1, CLIP-tag (CLIP) (Homo sapiens, UniProt P16455, A121V/A127T/A154D/C150Q/C62A/G131N/G132T/G153S/K125A/K32I/L33F/M134L/M60I/N157P/Q115S/Q116H/R128A/R135D/S151G/S152D/S159L/Y114E); assay: CLIP labeling kinetics via microplate reader (FP over time); assay type: biochemical; conditions: CLIP, plate reader, kinetic model 1
T1 construct: made in house; host or cells: E. coli BL21(DE3)-pLysS
T1 sequence (P16455 1-182 K32I/L33F/M60I/C62A/Y114E/Q115S/Q116H/A121V/K125A/A127T/R128A/G131N/G132T/M134L/R135D/C150Q/S151G/S152D/G153S/A154D/N157P/S159L limits assumed): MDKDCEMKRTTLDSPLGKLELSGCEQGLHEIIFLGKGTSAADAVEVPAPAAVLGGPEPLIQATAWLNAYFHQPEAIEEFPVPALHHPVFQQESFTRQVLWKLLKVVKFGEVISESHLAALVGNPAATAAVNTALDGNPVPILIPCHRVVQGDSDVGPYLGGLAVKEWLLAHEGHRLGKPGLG
Protocol: (§1) Labeling kinetics of SNAP and CLIP substrates were measured by recording FP over time using a microplate reader in a manner analogous to that of HT7 labeling kinetics described above with the following changes. The fluorescent substrate concentration was fixed to 20 nM, and protein concentrations were varied from 15 to 900 nM. Measurements were performed in SNAP-FP buffer.
(§2) Kinetic data from microplate reader assays were fitted to a simplified kinetic model (eq 13) described by differential eqs 14–16 using DynaFit. The dead time of the measurements and baseline FP value were put in as fixed parameters. Standard deviations (normal distribution verified) and confidence intervals of fitted parameters were estimated with the Monte Carlo method with standard settings (N = 1000, 5% worst fits discarded). In the case of BG, CP, and BC kinetics, the substrate concentration was fitted by DynaFit to rule out quantification errors of the BG, CP, or BC fluorophores. Accurate fitting of the concentration was ensured by including conditions under which protein is limiting and no maximum FP value was reached.

[2] = target: T2, SNAP-tag (SNAP) (Homo sapiens, UniProt P16455, A127T/A154D/C150Q/C62A/G131K/G132T/G153L/K125A/K32I/L33F/M134L/N157G/Q115S/Q116H/R128A/R135S/S151G/S152D/S159E); assay: SNAP labeling kinetics via microplate reader (FP over time); assay type: biochemical
T2 construct: made in house; host or cells: E. coli BL21(DE3)-pLysS
T2 sequence (P16455 1-182 K32I/L33F/C62A/Q115S/Q116H/K125A/A127T/R128A/G131K/G132T/M134L/R135S/C150Q/S151G/S152D/G153L/A154D/N157G/S159E limits assumed): T1 sequence (P16455 1-182 K32I/L33F/M60I/C62A/Y114E/Q115S/Q116H/A121V/K125A/A127T/R128A/G131N/G132T/M134L/R135D/C150Q/S151G/S152D/G153S/A154D/N157P/S159L limits assumed) with I60M, E114Y, V121A, N131K, D135S, S153L, P157G, L159E
Procedure, shortened: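 Fluorescent substrate at 20 nM was mixed with protein at 15–900 nM in SNAP-FP buffer, and labeling was followed as fluorescence polarization over time on a plate reader. Rate constants came from fitting a simplified kinetic model in DynaFit. Parameter errors were estimated by Monte Carlo, and substrate concentration was fitted for BG, CP and BC substrates.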

[3] = target: T3, hAGT (human O^6-alkylguanine-DNA alkyltransferase) (Homo sapiens, UniProt P16455); assay: hAGT labeling kinetics via microplate reader (FP over time); assay type: biochemical; conditions: hAGT vs CLIP
T3 construct: StrepTag-II (N); enterokinase cleavage site (N); His10 (C); made in house; host or cells: E. coli BL21(DE3)-pLysS
T3 sequence (P16455 1-207): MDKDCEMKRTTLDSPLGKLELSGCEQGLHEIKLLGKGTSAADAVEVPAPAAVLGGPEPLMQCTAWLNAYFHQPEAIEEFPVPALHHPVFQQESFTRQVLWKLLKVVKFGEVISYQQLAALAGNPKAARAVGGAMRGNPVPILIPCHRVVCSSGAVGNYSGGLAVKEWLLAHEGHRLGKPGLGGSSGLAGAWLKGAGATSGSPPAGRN
Protocol: as §1, §2

[4] = target: T4, CLIPf (CLIP^E30R) (Homo sapiens, UniProt P16455, A121V/A127T/A154D/C150Q/C62A/E30R/G131N/G132T/G153S/K125A/K32I/L33F/M134L/M60I/N157P/Q115S/Q116H/R128A/R135D/S151G/S152D/S159L/Y114E); assay: CLIPf labeling kinetics via microplate reader (FP over time); assay type: biochemical; conditions: plate reader
T4 construct: made in house; host or cells: E. coli BL21(DE3)-pLysS
T4 sequence (P16455 1-182 E30R/K32I/L33F/M60I/C62A/Y114E/Q115S/Q116H/A121V/K125A/A127T/R128A/G131N/G132T/M134L/R135D/C150Q/S151G/S152D/G153S/A154D/N157P/S159L limits assumed): T1 sequence (P16455 1-182 K32I/L33F/M60I/C62A/Y114E/Q115S/Q116H/A121V/K125A/A127T/R128A/G131N/G132T/M134L/R135D/C150Q/S151G/S152D/G153S/A154D/N157P/S159L limits assumed) with E30R
Protocol: as §1, §2

[5] = target: T5, HT7^D106A (Rhodococcus sp., UniProt P59336, A155T/A167V/A224E/C128F/C176G/D106A/D78G/E160K/E257K/G292T/H272N/K175M/K195N/L47V/L88M/N227D/P291S/S2A/S58T/T264A/V172T/Y273L/Y87F); assay: Affinity of HT7^D106A for CA-Ac via FP competition assay against CA-TMR; assay type: binding
T5 construct: made in house; host or cells: E. coli BL21(DE3)-pLysS
Protocol: The binding affinity of HT7^D106A for CA-Ac was determined by a fluorescence polarization competition assay against CA-TMR. Therein, 5 μM protein and 50 nM CA-TMR were titrated against CA-Ac concentrations ranging from 80 μM to 10 mM in activity buffer supplemented with 0.5 g/L BSA. Assays were performed in low-volume nonbinding black 384-well plates (Corning Inc.) with a final volume of 20 μL using a microplate reader (Spark20M, Tecan). Obtained FP values were averaged and fitted to a four-parameter logistic curve (eq 3) to estimate the I50 value. The lower plateau was fixed to the measured FP value of the free dye to improve the fit. The dissociation constant of CA-Ac was calculated as described by Rossi and Taylor.[35] [drawing 3] 3 where FPmin is the fluorescence polarization of the free fluorophore (lower plateau), FPmax is the maximal fluorescence polarization of the fully bound fluorophore (upper plateau), I50 is the half-maximal effective concentration, and [ligand] is the ligand concentration.
(§3) Free binding energies were calculated from Kd values according to eq 4: [drawing 4] 4 where ΔG is the free binding energy, R is the universal gas constant, T is the temperature, and Kd is the dissociation constant.

[6] = target: T6, HaloTag7 (HT7) (Rhodococcus sp., UniProt P59336, A155T/A167V/A224E/C128F/C176G/D78G/E160K/E257K/G292T/H272N/K175M/K195N/L47V/L88M/N227D/P291S/S2A/S58T/T264A/V172T/Y273L/Y87F); assay: HT7 competitive labeling kinetics against CA-Alexa488; assay type: biochemical; conditions: HT7, nonfluorescent substrates, competition with CA-Alexa488, 37 °C
T6 construct: made in house; host or cells: E. coli BL21(DE3)-pLysS
Protocol: Competitive kinetics were measured by recording FP over time using a microplate reader (Spark20M, Tecan). The final concentrations of CA-Alexa488 (50 nM) and HT7 protein (200 nM) remained constant with varying concentrations of nonfluorescent substrates (0–1 μM) in activity buffer supplemented with 0.5 g/L BSA. Assays were performed in black nonbinding flat bottom 96-well plates with a final reaction volume of 200 μL. Labeling reactions were started by adding the HT7 protein to wells containing CA-Alexa488 and nonfluorescent substrates using an electronic 96-channel pipettor (Integra Bioscience Corp., Hudson, NH). The FP of free CA-Alexa488 was measured to obtain a baseline.
Data were fitted to a simplified kinetic competition model (eqs 19 and 20) described by differential eqs 21–25 using DynaFit. The dead time of the measurements and baseline FP value were put in as fixed parameters. Standard deviations (normal distribution verified) and confidence intervals of fitted parameters were estimated with the Monte Carlo method with standard settings (N = 1000, 5% worst fits discarded). [drawing 19] 19 [drawing 20] 20 where P is the SLP protein, S is the fluorescent SLP substrate, I is the nonfluorescent SLP substrate (inhibitor), PS is the protein–fluorescent substrate conjugate, and PI is the protein–nonfluorescent substrate conjugate. [drawing 21] 21 [drawing 22] 22 [drawing 23] 23 [drawing 24] 24 [drawing 25] 25

[7] = target: T7, SNAP^C145A (Homo sapiens, UniProt P16455, A127T/A154D/C145A/C150Q/C62A/G131K/G132T/G153L/K125A/K32I/L33F/M134L/N157G/Q115S/Q116H/R128A/R135S/S151G/S152D/S159E); assay: Affinity of SNAP^C145A for BG and CP fluorescent substrates by fluorescence polarization; assay type: binding; conditions: SNAP^C145A, fluorescence polarization, room temperature
T7 construct: made in house; host or cells: E. coli BL21(DE3)-pLysS
T7 sequence (P16455 1-182 K32I/L33F/C62A/Q115S/Q116H/K125A/A127T/R128A/G131K/G132T/M134L/R135S/C145A/C150Q/S151G/S152D/G153L/A154D/N157G/S159E limits assumed): T1 sequence (P16455 1-182 K32I/L33F/M60I/C62A/Y114E/Q115S/Q116H/A121V/K125A/A127T/R128A/G131N/G132T/M134L/R135D/C150Q/S151G/S152D/G153S/A154D/N157P/S159L limits assumed) with I60M, E114Y, V121A, N131K, D135S, C145A, S153L, P157G, L159E
Protocol: Binding affinities of SNAP^C145A and SNAPf^C145A for BG-Alexa488, CP-Alexa488, BG-fluorescein, CP-fluorescein, BG-MAP555, BG-JF549, BG-TMR(6), BG-TMR(5), CP-TMR, BG-CPY(6), BG-CPY(5), CP-CPY, BG-SiR, CP-SiR, BG-JF646, BG-Atto565, BG-Atto590, BG-sulfo-Cy3, BG-Cy3, BG-sulfo-Cy5, and BG-Cy5 were determined by fluorescence polarization in a manner analogous to that for HT7 affinities for CA substrates described above with the following changes. Fluorescent substrates were titrated at a final concentration of 50 nM against protein concentrations ranging from 0 to 250 μM at room temperature using 0.1 g/L BSA and 1 mM DTT (SNAP-FP buffer). The FP value of each dye fully reacted with the native SNAP/SNAPf was used to improve fitting of the upper plateau of the curves by adding an extra data point at a protein concentration of 0.005 M.

[8] = target: T5, HT7^D106A; assay: Affinity of HT7 for methyl-amide fluorophores by fluorescence polarization; assay type: binding
Protocol: Binding affinities of HT7 for methyl-amide fluorophores were determined by fluorescence polarization in a manner analogous to that of CA substrates described above with the following changes. Fluorescent substrates were used at a final concentration of 50 nM, and measurements were performed at room temperature.
as §3

T5 sequence (P59336 other isoform, or with tags, fused parts or gaps with the stated changes): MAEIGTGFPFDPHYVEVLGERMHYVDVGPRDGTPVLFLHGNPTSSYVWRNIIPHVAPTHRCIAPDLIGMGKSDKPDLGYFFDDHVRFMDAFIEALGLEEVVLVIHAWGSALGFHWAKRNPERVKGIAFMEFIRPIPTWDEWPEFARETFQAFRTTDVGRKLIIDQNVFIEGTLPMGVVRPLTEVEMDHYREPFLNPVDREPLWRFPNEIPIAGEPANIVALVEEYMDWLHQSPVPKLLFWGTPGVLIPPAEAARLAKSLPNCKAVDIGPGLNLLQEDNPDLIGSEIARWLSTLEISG
T6 sequence (P59336 other isoform, or with tags, fused parts or gaps with the stated changes): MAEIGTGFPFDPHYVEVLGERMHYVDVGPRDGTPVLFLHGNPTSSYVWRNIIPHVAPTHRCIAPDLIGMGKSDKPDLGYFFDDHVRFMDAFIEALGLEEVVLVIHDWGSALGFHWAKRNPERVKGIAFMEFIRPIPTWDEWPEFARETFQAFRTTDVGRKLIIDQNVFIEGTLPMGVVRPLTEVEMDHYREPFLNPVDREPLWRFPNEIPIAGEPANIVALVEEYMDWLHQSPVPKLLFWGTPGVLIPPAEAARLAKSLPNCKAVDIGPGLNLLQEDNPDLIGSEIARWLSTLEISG

With CN(C)c1ccc2c(-c3cc(C(=O)NCc4ccc(COc5nccc(N)n5)cc4)ccc3C(=O)[O-])c3ccc(=[N+](C)C)cc-3oc2c1 [BC-TMR] the “kapp (value ± standard deviation)” value [1] was “(1.85 ± 0.01) × 10^4 M^–1 s^–1”, the “times slower reaction of SNAP than with BG-TMR” value ([2]; SNAP cross-reactivity) was “more than 1000 times” and the “kapp (value ± standard deviation)” value ([2]; SNAP, plate reader, kinetic model 1) was “(3.20 ± 0.02) × 10^2 M^–1 s^–1”. For the same compound, the “times slower reaction with hAGT than with CLIP” value [3] was 25000 times and the kapp [4] was “(3.37 ± 0.01) × 10^4 M^–1 s^–1”.
In the case of CC(=O)NCCOCCOCCCCCCCl [CA-Ac, acetylated chloroalkane], the Kd [5] is reported as 2620 µM, the “free binding energy (ΔG)” value ([5]; HT7^D106A, calculated from Kd) is reported as −15.3 kJ mol^–1 and the “kapp (value ± standard deviation)” value [6] is reported as “(1.53 ± 0.02) × 10^3 M^–1 s^–1”.
With CNC(=O)c1ccc(C(=O)[O-])c(-c2c3ccc(=[N+](C)C)cc-3oc3cc(N(C)C)ccc23)c1 [meAm-TMR] the “Kd^C145A” value [7] was “no affinity could be measured”, the “free binding energy (ΔG)” value ([8]; calculated from Kd) was −16.7 kJ mol^–1 and the Kd ([8]; fluorescence polarization, room temperature) was 1510 µM.

Source: publication PMC8388125, “Kinetic and Structural Characterization of the Self-Labeling Protein Tags HaloTag7, SNAP-tag, and CLIP-tag” (Biochemistry, 2021)
